What was measured:
[1] = system: rats with DC crush injury; assay: Spinal cord water content after DC injury in rats; type: in vivo; conditions: rat DC injury, oral, 3 days
Protocol: DC crush injury was administered bilaterally at the T8 vertebral level as described previously (S. Surey, M. Berry, A. Logan, R. Bicknell, Z. Ahmed, Differential cavitation, angiogenesis and wound-healing responses in injured mouse and rat spinal cords. Neuroscience 275, 62-80 (2014); M. L. Read, S. Mir, R. Spice, R. J. Seabright, E. L. Suggate, Z. Ahmed, M. Berry, A. Logan, Profiling RNA interference (RNAi)-mediated toxicity in neural cultures for effective short interfering RNA design. J Gene Med 11, 523-534 (2009)). […]
The efficacy of oral AZD3342 in the DC injury model in adult Sprague-Dawley rat was also assessed. […]
The lesion site+3 mm either side for mice and the lesion site+5 mm either side for the rat DC model were dissected out and the water content of the spinal cord (as a measure of oedema) was determined at 3 days after DC and CC SCI, as described previously (S. Li, C. H. Tator, Effects of MK801 on evoked potentials, spinal cord blood flow and cord edema in acute spinal cord injury in rats. Spinal Cord 37, 820-832 (1999)). […] The percent water content was calculated as: water content (%)=[(wet weight-dry weight)/wet weight]×100%.

[2] = system: rats with DC crush injury; assay: CAP traces after DC injury in rats; type: in vivo; conditions: rat DC injury, 6 weeks
Protocol: The efficacy of oral AZD3342 in the DC injury model in adult Sprague-Dawley rat was also assessed. Animals were divided into 6 groups: (1), Sham (control); (2), DC crush injury+Vehicle; (3), DC crush injury+15 mg/kg AZD3342; (4), DC crush injury+75 mg/kg […]; (5), DC crush injury+375 mg/kg AZD3342; and (6), DC crush injury+Melatonin. Animals were dosed twice daily with oral AZD3342 or vehicle with the experimenters masked to the treatment conditions. These experiments were performed with n=6 rats/group and repeated on 2-3 independent occasions (total n=12-18 rats/group/test).
Compound action potentials (CAP) were recorded at 6 w weeks after DC injury and treatment, as described previously—for example B. C. Hains, C. Y. Saab, A. C. […]
(§1) Briefly, the experimenter was masked to the treatment status of the animals and the CAP amplitude was calculated between the negative deflection after the stimulus artifact and the next peak of the wave. CAP area was also calculated by rectifying the CAP component (full-wave rectification) and measuring its area. To confirm our recordings and that a CAP could not be recorded, the dorsal half of the spinal cord was transected after each experiment between the stimulating and recording electrodes.

[3] = system: gelatinase enzyme activity; assay: In situ zymography of DC-injured spinal cord sections; type: in vivo, mouse; conditions: oral and intrathecally-administered
Protocol: Animals were killed by CO2 overdose intracardially perfused with warm PBS and unfixed tissues were harvested. […] In situ zymography was performed as described previously (Z. Ahmed, R. G. Dent, W. E. Leadbeater, C. Smith, M. Berry, A. Logan, Matrix metalloproteases: degradation of the inhibitory environment of the transected optic nerve and the scar by regenerating axons. Mol Cell Neurosci 28, 64-78 (2005)).
Briefly, 15 μm-thick unfixed frozen longitudinal sections of the spinal cord were cut on a cryostat and incubated at 25° C., for 24 h in 50 mM Tris, pH 7.4, 150 mM NaCl, 5 mM CaCl2, 0.2 mM sodium azide and 40 ug/ml fluorescein conjugated DQ™ gelatin (Molecular Probes). Upon proteolysis, the highly fluoresceinated gelatin residues became separated and fluorescence resulted. Control sections were incubated either without DQ™ gelatin or incubated with 50 μM 1,10-phenanthroline (Sigma, Poole, UK) to block MMP activation. […] After final washes in PBS, sections were mounted in Vectashield with DAPI (Vector Laboratories, Loughborough, UK) and viewed with a Zeiss Axioplan 2 fluorescence microscope, equipped with an AxioCam HRc and running Axiovision software (Zeiss, Hertfordshire, UK).

[4] = system: mice with DC crush injury; assay: Electrophysiology: compound action potentials (CAP) across DC lesion in mice; type: in vivo, mouse
Protocol: Compound action potentials (CAP) were recorded at 6 w weeks after DC injury and treatment, as described previously—for example B. C. Hains, C. Y. Saab, A. C. Lo, S. G. Waxman, Sodium channel blockade with phenytoin protects spinal cord axons, enhances axonal conduction, and improves functional motor recovery after contusion SCI. Exp Neurol 188, 365-377 (2004).
as §1

[5] = system: mice with DC crush injury; assay: Tape removal test (sensory function) after DC injury in mice; type: in vivo, mouse
Protocol: Functional testing after DC lesion and treatment was carried out as described previously (N. D. Fagoe, C. L. Attwell, R. Eggers, L. Tuinenbreijer, D. Kouwenhoven, J. Verhaagen, M. R. Mason, Evaluation of Five Tests for Sensitivity to Functional Deficits following Cervical or Thoracic Dorsal Column Transection in the Rat. PLoS One 11, e0150141 (2016)).
Briefly, animals (n=18/group) were first trained to master traversing a horizontal ladder for 1 w before functional testing. Baseline parameters were established by performing tests at 2-3d before injury. Animals were then tested at 2d, 1 w, 2 w, 3 w, 4 w, 5 w and 6 w after DC injury+treatment. Experiments were performed by an observer masked to the treatment conditions in the same order and time of day with each test performed for 3 individual trials.
Tape removal test (sensory function): The tape removal test determines touch perception from the left hind paw. After holding animals with both hind-paws extended, the time it took for the animal to detect and remove a piece of tape of 15×15 mm (Kip Hochkrepp, Bocholt, Germany) affixed to the palm of the left hind-paw was recorded and used to calculate the mean sensing time.

[6] = system: mice with DC crush injury; assay: NF200+ spared fibres above and below the lesion; type: in vivo, mouse; conditions: oral
[7] = optimal doses, 24 h delay vs immediate

Compound	SCI-induced edema (spinal cord water content) [1]	electrophysiological CAP traces [2]	DC injury-induced gelatinase activity adjacent to the lesion site [3]	dorsum cord potentials, CAP amplitudes, CAP areas, 24-h delayed treatment [4, 7]	CAP area relative to Sham-treated controls ([4]; oral)	CAP wave ([4]; oral 200 mg/kg, 6 weeks after DC injury)	mean CAP amplitude ([4]; oral, all stimulation intensities)	CAP area ([4]; oral, sham 0.65±0.02, DC+vehicle 0.06±0.02)	sensory function, 24-h delayed treatment [5, 7]	improvement in sensory function ([5]; oral)	mean tape sensing and removal time ([5]; oral, by 3 weeks)	NF200+ spared fibres above (T9) and below (T7) the lesion site [6]
C[C@]1(CS(=O)(=O)N2CCC(Oc3ccc(Cl)cn3)CC2)NC(=O)NC1=O [AZD3342, (5S)-5-[4-(5-chloro-pyridin-2-yloxy)-piperidine-1-sulfonylmethyl]-5-methylimidazolidine-2,4-dione]	suppressed	significantly improved										
C[C@]1(CS(=O)(=O)N2CC=C(C#Cc3cnc(C4CC4)nc3)CC2)NC(=O)NC1=O [AZD1236]			completely suppressed	equally as effective as immediate delivery	80%	restored a significant CAP wave	significantly larger CAP amplitudes	0.52±0.09 mV×ms	equally as effective as immediate delivery	85%	indistinguishable from sham-treated groups	significantly preserved axon fibres

From patent US20230255943A1, “MMP-9 AND MMP-12 INHIBITION FOR TREATING SPINAL CORD INJURY OR RELATED INJURY TO NEUROLOGICAL TISSUE” (The University of Birmingham, priority 2020, published 2023)
